# Source: US20260108483A1, “METHODS AND COMPOSITIONS FOR PREVENTING THE PROGRESSION OF DIABETIC RETINOPATHY AND RELATED CONDITIONS” (Opus Genetics, Inc., priority 2023, published 2026)
# Tests used:
# [1] = Clinical study safety: glomerular filtration rate; assay type: in vivo, human; conditions: combined placebo + Compound 1 patients; for Mean Glomerular Filtration Rate: Baseline 92.53
# Text: (§1) The study was configured as a placebo-controlled, double-masked, randomized, Phase 2 study in approximately 100 subjects with moderately severe to severe NPDR (diabetic retinopathy severity score [DRSS] Level 47 or 53, see FIG. 1) or mild PDR (DRSS Level 61), evaluating safety and efficacy following administration of Compound 1 twice daily for 24 weeks. The study was configured for a 1:1 randomization (placebo: Compound 1). Randomization was stratified by level of disease severity (NPDR or PDR). Subjects with mild PDR were capped at 20% for each arm. Efficacy evaluations at 12 and/or 24 weeks included DRSS, center-involved diabetic macular edema (DME), moderate PDR or PDR-related adverse events (AEs), best-corrected visual acuity (BCVA), and central subfield thickness (CST). Further experimental procedures and results are described below.
# (§2) At the Qualification/Baseline (Visit 2, Day 1): • The subject was randomized into the study. • Study medication was dispensed in accordance with the subjects randomized treatment arm. • Blood samples were drawn pre-dose for baseline levels and on Visit 9 (Week 24) for exploratory biomarker processing (i.e., cytokine and Ref-1 levels) to evaluate pharmacodynamic properties. • Subjects were instructed to administer their study medication (Compound 1 or placebo) each day, with 3 tablets every morning and 2 tablets every evening. Study medication was to be taken at approximately the same time each day and may be taken with or without food.
# (§3) At the Second Treatment Visit (Visit 6, Week 12±2 Days), subjects were to return to the site for the following series of safety and efficacy assessments: drug accountability, concomitant medications, urine pregnancy test (only for women of childbearing potential), HR/BP/vital signs, BCVA (ETDRS), DRSS, CST (SD-OCT), blood draw for PK, blood chemistry, blood hematology, biomicroscopy, ophthalmoscopy, IOP, eGFR, and AEs. Following the completion of the assessments, used medication kits were collected for accountability (by counting the number of unused tablets), and new study medication kits dispensed.
# (§4) At the Third Treatment Visit (Visit 9, Week 24±2 Days), subjects were to return to the site for the following series of safety and efficacy assessments: drug accountability, concomitant medications, urine pregnancy test (only for women of childbearing potential), physical examination, HR/BP/vital signs, BCVA (ETDRS), DRSS, CST (SD-OCT), blood chemistry, blood hematology, biomicroscopy, ophthalmoscopy, IOP, eGFR, AEs, and blood draw for exploratory biomarkers (ELISA, cytokine panel, comprehensive metabolic panel). Visit 9 (Week 24) was the end of the treatment period. Study medication was returned for accountability (by counting the number of unused tablets), and no further study medication dispensed.
# (§5) Safety endpoints include: • Incidence and severity of systemic and ocular AEs, • Change from baseline in body system assessments, • Change from baseline in vital sign measurements, • Change from baseline in clinical laboratory assay results (blood chemistry, hematology), • Change from baseline in intraocular pressure (IOP), • Change from baseline in slit-lamp examination parameters, • Change from baseline in dilated funduscopic examination parameters, • Percent of subjects with a decrease of ≥10 letters in BCVA compared to baseline at Week 12 and Week 24, • Percent of subjects progressing to center-involved DME (eligible for rescue treatment at Week 12 and Week 24), • Percent of subjects with a worsening in DRSS of ≥2 steps in the study eye at Week 12 and Week 24, • Percent of subjects developing anterior segment neovascularization at Week 12 and Week 24, • Percent of subjects rescued (intravitreal anti-VEGF injection, laser PRP, focal/grid laser treatment, or surgery [vitrectomy]) at the discretion of the Investigator at Week 12 and Week 24, and • Change from baseline in estimated glomerular filtration rate (eGFR) at Week 12 and Week 24. […]
# [2] = Clinical study safety: heart rate; assay type: in vivo, human; conditions: combined placebo + Compound 1 patients; for Mean Heart Rate: Baseline 76.7
# Text: as §1, §2, §3, §4, §5
smiles,measurement,setting,value
"CCCCCCCCC/C(=C\C1=C(C)C(=O)C(OC)=C(OC)C1=O)C(=O)O [Compound 1, (E)-2-((4,5-dimethoxy-2-methyl-3,6-dioxocyclohexa-1,4-dien-1-yl)methylene)undecanoic acid]",Mean Glomerular Filtration Rate,"[1]; Week 12, 52 subjects",83.85 mL/min/1.73 m^2
same,Mean Glomerular Filtration Rate,"[1]; Week 24, 24 subjects",77.7 mL/min/1.73 m^2
same,change in mean glomerular filtrate rate relative to Baseline,"[1]; week 12, 47 subjects",−2.24 mL/min/1.73 m^2
same,reduction in mean glomerular filtrate rate relative to Baseline,"[1]; week 12, 47 subjects",2%
same,change in mean glomerular filtrate rate relative to Baseline,"[1]; week 24, 21 subjects",−9.84 mL/min/1.73 m^2
same,reduction in mean glomerular filtrate rate relative to Baseline,"[1]; week 24, 21 subjects",11%
same,Mean Heart Rate,"[2]; Week 12, 62 subjects",76.3 beats/min
same,Mean Heart Rate,"[2]; Week 24, 27 subjects",80.7 beats/min
same,change in mean heart rate relative to Baseline,"[2]; week 12, 62 subjects",+0.9 beats/min
same,increase in mean heart rate relative to Baseline,"[2]; week 12, 62 subjects",1%
same,change in mean heart rate relative to Baseline,"[2]; week 24, 27 subjects",+4.3 beats/min
same,increase in mean heart rate relative to Baseline,"[2]; week 24, 27 subjects",6%
